# Values quoted from earlier work in patent US20180153800A1, “PERSONAL LUBRICANT PROVIDING SEQUENTIAL MULTISENSORIAL PERCEPTIONS AND ARTICLES INCORPORATING SUCH LUBRICANT” (Church & Dwight Co., Inc., priority 2016, published 2018).
# Tested on: human tissue
SMILES,time of onset of cooling sensation (after tissue contact),sensation duration (cooling sensation),cooling sensation relative to menthol (reference menthol) [times]
CC1CCC(C(C)C)C(OC(=O)CCC(=O)N(C)C)C1 (stereo not drawn) [2-isopropyl-5-methylcyclohexyl 4-(dimethylamino)-4-oxobutanoate],about 25 seconds,about 11.25 minutes,
CC1CCC(C(C)C)C(C(=O)Nc2ccc(CC#N)cc2)C1 (stereo not drawn) [N-(4-cyanomethylphenyl) p-menthanecarboxamide],,,10
